Here are results for 23 compounds from ChEMBL document CHEMBL3244037, “6-Aryl-4H-s-triazolo[4,3-a][1,4]benzodiazepines. Influence of 1-substitution on pharmacological activity” (J Med Chem, 1979).

Experiment [1] concerns Mus musculus. Nature of the experiment: Anticonvulsant activity in ip dosed albino CF1 mouse assessed as protection against pentylenetetrazole-induced clonic convulsions. It counts as functional.
Experiment [2] has as its system Mus musculus. Nature of the experiment: Hypothermic activity in ip dosed albino CF1 mouse assessed as effect on body temperature measured after 45 mins. The experiment is classed as functional. Particulars: 0.75 h.
Experiment [3] concerns Mus musculus. Nature of the experiment: Inhibition of apomorphine-induced cage climbing in ip dosed albino CF1 mouse compound administered prior to challenge measured for 5 mins after 5 mins of challenge. It counts as functional.
Experiment [4] deals with Mus musculus. Nature of the experiment: Anticonvulsant activity in ip dosed albino CF1 mouse assessed as inhibition of bicucullin-induced tonic extensor convulsions. It counts as functional.
In experiment [5] the test system is Mus musculus. Nature of the experiment: […] activity in ip dosed albino CF1 mouse assessed as potentiation of gamma-butyrolactone-induced sleep. The experiment is classed as functional.
Experiment [6] deals with Mus musculus. Nature of the experiment: Reduction of hypoxic stress in ip dosed albino CF1 mouse assessed as prolongation of hypoxic survival time. It counts as functional.
Experiment [7] has as its system Mus musculus. Nature of the experiment: Inhibition of amphetamine aggregation toxicity in ip dosed albino CF1 mouse compound administered 1 hr prior to challenge measured after 2 hrs. It counts as functional.
For experiment [8], the system named is Mus musculus. Nature of the experiment: Potentiation of yohimbine toxicity in ip dosed aggregated albino CF1 mouse. The experiment is classed as organism-based.
Experiment [9] relates to Mus musculus. Nature of the experiment: Inhibition of oxotremorine-induced hypothermia in ip dosed albino CF1 mouse. The experiment is classed as functional.
Experiment [10] deals with Mus musculus. Nature of the experiment: Potentiation of apomorphine-induced gnawing in ip dosed albino CF1 mouse. The experiment is classed as organism-based.

Take `CN(C)c1nnc2n1-c1ccc(Cl)cc1C(c1ccccc1)=NC2`: the ED50 in experiment [1] is 0.9 mg/kg; in experiment [2] it was above 50 mg/kg; in [3], above 50 mg/kg; in experiment [4], 1.1 mg/kg; in experiment [5], 0.3 mg/kg; in experiment [6] it was 9 mg/kg. Besides, the ED50 was above 50 mg/kg in experiment [7], above 50 mg/kg in [8], 21 mg/kg in [9] and above 50 mg/kg in experiment [10].
Turning to `N#Cc1nnc2n1-c1ccc(Cl)cc1C(c1ccccc1)=NC2`, the ED50 in [2] is 10 mg/kg; in [3] it was above 50 mg/kg; in experiment [4], 3 mg/kg; in [5], 4 mg/kg; in [6], above 50 mg/kg; in [7] it was above 50 mg/kg. Further, the ED50 in experiment [8], in experiment [9] and in experiment [10] was above 50 mg/kg throughout.
On to `COc1nnc2n1-c1ccc(Cl)cc1C(c1ccccc1)=NC2`, for which the ED50 in experiment [1] is 0.14 mg/kg; in experiment [2], 10 mg/kg; in experiment [3], above 50 mg/kg; in experiment [4] it was 0.5 mg/kg; in [5] it was 0.1 mg/kg; in experiment [6], above 50 mg/kg. The ED50 in [7], in experiment [8], in experiment [9] and in experiment [10] was above 50 mg/kg in each case.
Consider `COCc1nnc2n1-c1ccc(Cl)cc1C(c1ccccc1)=NC2`, for which the ED50 in experiment [1] was 2 mg/kg; in experiment [2] it was 30 mg/kg; in experiment [3], above 50 mg/kg; in experiment [4], 0.6 mg/kg; in experiment [5], 2 mg/kg; in [6], 20 mg/kg. For the same compound, the ED50 in experiment [7], in experiment [8], in experiment [9] and in experiment [10] was above 50 mg/kg throughout.
Take `OCc1nnc2n1-c1ccc(Cl)cc1C(c1ccccc1)=NC2`: the ED50 in experiment [1] is 0.1 mg/kg; in experiment [2], above 50 mg/kg; in experiment [3] it was above 50 mg/kg; in experiment [4] it was 0.2 mg/kg; in [5], 0.1 mg/kg; in experiment [6], 0.9 mg/kg. Further, the ED50 is above 50 mg/kg in experiment [7], above 50 mg/kg in [8], 20 mg/kg in experiment [9] and above 50 mg/kg in [10].
For `N#CCc1nnc2n1-c1ccc(Cl)cc1C(c1ccccc1)=NC2`, the ED50 was 0.63 mg/kg in experiment [1]; above 50 mg/kg in experiment [2]; 40 mg/kg in experiment [3]; 0.2 mg/kg in experiment [4]; 0.07 mg/kg in experiment [5]; 2 mg/kg in experiment [6]. Further, the ED50 in [7], in [8], in [9] and in experiment [10] was above 50 mg/kg each time.
With `CC1N=C(c2ccccc2)c2cc(Cl)ccc2-n2c1nnc2N1CCOCC1` (centres undefined), the ED50 in experiment [1] is 0.4 mg/kg; in [2] it was above 50 mg/kg; in experiment [3] it was above 50 mg/kg; in [4], 3 mg/kg; in [5] it was 0.7 mg/kg; in experiment [6], 3 mg/kg. Moreover, the ED50 in experiment [7] is above 50 mg/kg; in experiment [8], 20 mg/kg; in [9], 10 mg/kg; in [10], above 50 mg/kg.
On to `CC1=NC(c2ccccc2)c2cc(Cl)ccc2-n2c1nnc2N1CCN(C)CC1` (centres undefined), for which the ED50 in experiment [1], in [2], in [3], in experiment [4], in experiment [5] and in [7] was above 50 mg/kg throughout. In addition, the figures for the ED50 in [8], in experiment [9] and in experiment [10] were above 50 mg/kg, 40 mg/kg and above 50 mg/kg, respectively.
Consider `CC1=NC(c2ccccc2)c2cc(Cl)ccc2-n2c1nnc2N1CCOCC1` (centres undefined), for which the ED50 in experiment [1], in experiment [2], in [3], in [4], in experiment [5] and in [7] was above 50 mg/kg in each case. Moreover, the ED50 in experiment [8], in experiment [9] and in experiment [10] was above 50 mg/kg throughout.
As to `Cc1nnc2n1-c1ccc(N)cc1C(c1ccccc1Cl)=NC2`, the ED50 was 2 mg/kg in experiment [1]; 30 mg/kg in experiment [2]; above 50 mg/kg in experiment [3]; 0.9 mg/kg in [4]; 0.7 mg/kg in [5]; 4 mg/kg in [6]. Further, the ED50 in [7], in experiment [8], in [9] and in experiment [10] was above 50 mg/kg each time.
As to `Brc1ccc2c(c1)C(c1ccccn1)=NCc1nncn1-2`, the ED50 in experiment [1] is 0.3 mg/kg; in experiment [2], above 50 mg/kg; in experiment [3], above 50 mg/kg; in experiment [4], 0.4 mg/kg; in [5] it was 0.04 mg/kg; in experiment [6], 0.2 mg/kg. For the same compound, the ED50 in experiment [7] was above 50 mg/kg; in experiment [8] it was 42 mg/kg; in experiment [9], above 50 mg/kg; in experiment [10] it was above 50 mg/kg.
Regarding `CN1CCN(c2nnc3n2-c2ccc(Cl)cc2C(c2ccccc2)=NC3)CC1`, the ED50 was 1.6 mg/kg in [1]; above 50 mg/kg in [2]; above 50 mg/kg in [3]; 10.5 mg/kg in [4]; 0.7 mg/kg in [5]; above 50 mg/kg in [6]. In addition, the ED50 in experiment [7] was above 50 mg/kg; in [8], above 50 mg/kg; in experiment [9] it was 7.4 mg/kg; in [10], 17.7 mg/kg.
For the compound `CCN1CCN(c2nnc3n2-c2ccc(Cl)cc2C(c2ccccc2)=NC3)CC1`, the ED50 was 0.9 mg/kg in experiment [1]; 42 mg/kg in experiment [2]; above 50 mg/kg in [3]; 1.9 mg/kg in experiment [4]; 0.6 mg/kg in [5]; 25 mg/kg in experiment [6]. Further, the median effective dose (ED50) is above 50 mg/kg in experiment [7], above 50 mg/kg in [8], 0.2 mg/kg in experiment [9] and 29.7 mg/kg in experiment [10].
In the case of `CN1CCN(c2nnc3n2-c2ccc(Cl)cc2C(c2ccccc2Cl)=NC3)CC1`, the ED50 in [1] is 0.03 mg/kg; in experiment [2], 3.1 mg/kg; in experiment [3], above 50 mg/kg; in experiment [4], 0.06 mg/kg; in experiment [5], 0.035 mg/kg; in [6], 0.011 mg/kg. For the same compound, the ED50 is above 50 mg/kg in [7], 35.4 mg/kg in experiment [8], 4.4 mg/kg in experiment [9] and above 50 mg/kg in experiment [10].
As to `Clc1ccccc1C1=NCc2nnc(N3CCOCC3)n2-c2ccccc21`, the ED50 was 1.6 mg/kg in [1]; above 50 mg/kg in experiment [2]; above 50 mg/kg in [3]; 10.5 mg/kg in [4]; 0.8 mg/kg in experiment [5]; 0.015 mg/kg in experiment [6]. In addition, the ED50 in [7], in experiment [8], in experiment [9] and in [10] was above 50 mg/kg each time.
For `Clc1ccc2c(c1)C(c1ccccc1Cl)=NCc1nnc(N3CCOCC3)n1-2`, the ED50 is 0.06 mg/kg in experiment [1]; 6 mg/kg in experiment [2]; above 50 mg/kg in experiment [3]; 0.05 mg/kg in experiment [4]; 0.04 mg/kg in experiment [5]; 0.06 mg/kg in [6]. Also, the ED50 in experiment [7], in experiment [8], in experiment [9] and in experiment [10] was above 50 mg/kg in each case.
Consider `OCc1nnc2n1-c1ccc(Cl)cc1C(c1ccccc1Cl)=NC2`, for which the ED50 in experiment [1] is 0.045 mg/kg; in experiment [2], 7 mg/kg; in experiment [3], above 50 mg/kg; in experiment [4], 0.02 mg/kg; in experiment [5], 0.01 mg/kg; in experiment [6] it was 0.06 mg/kg. Further, the ED50 in experiment [7], in experiment [8], in [9] and in [10] was above 50 mg/kg each time.
As to `CCOCc1nnc2n1-c1ccc(Cl)cc1C(c1ccccc1)=NC2`, the ED50 was 1.4 mg/kg in experiment [1]; 40 mg/kg in experiment [2]; above 50 mg/kg in [3]; 3 mg/kg in [4]; 0.9 mg/kg in experiment [5]; 10 mg/kg in experiment [6]. The ED50 in [7], in [8], in experiment [9] and in [10] was above 50 mg/kg throughout.
Turning to `Cc1nnc2n1-c1ccc(Br)cc1C(c1ccccn1)=NC2`, the ED50 was 0.12 mg/kg in [1]; 0.24 mg/kg in [4]; 0.035 mg/kg in experiment [5]; above 50 mg/kg in experiment [8]; above 50 mg/kg in experiment [9]; above 50 mg/kg in experiment [10].
For the compound `Cc1nnc2n1-c1ccc(Br)cc1C(c1ccccc1)=NC2`, the median effective dose (ED50) in experiment [1] worked out at 0.6 mg/kg; in [2], 20 mg/kg; in [3] it was 20 mg/kg; in experiment [4] it was 0.5 mg/kg; in [5], 0.8 mg/kg; in [6], 2 mg/kg. Also, the ED50 in [7], in experiment [8], in experiment [9] and in experiment [10] was above 50 mg/kg each time.
On to `CN(C)CCCN1c2ccccc2Sc2ccc(Cl)cc21` [CHLORPROMAZINE], for which the ED50 is above 50 mg/kg in experiment [1]; 1 mg/kg in experiment [2]; 1 mg/kg in experiment [3]; 50 mg/kg in experiment [4]; 0.5 mg/kg in experiment [5]; above 50 mg/kg in experiment [6]. Also, the ED50 stood at 1 mg/kg in [7], 0.9 mg/kg in experiment [9] and 1 mg/kg in experiment [10].
Take `CN(C)CCCN1c2ccccc2CCc2ccccc21.Cl` [IMIPRAMINE HYDROCHLORIDE]: the ED50 in experiment [2] was above 50 mg/kg; in experiment [4], 21 mg/kg; in experiment [5], 18 mg/kg; in experiment [7], above 50 mg/kg; in experiment [8] it was 4 mg/kg; in experiment [9], 1 mg/kg. Further, the ED50 in [10] was found to be 1 mg/kg.
Take `Cc1nnc2n1-c1ccc(Cl)cc1C(c1ccccc1Cl)=NC2` [TRIAZOLAM]: the ED50 in experiment [1] was 0.07 mg/kg; in [6] it was 0.07 mg/kg; in experiment [8] it was above 50 mg/kg; in [9] it was above 50 mg/kg; in experiment [10], above 50 mg/kg.
